Measured values: patent publication US8937078B2, “Quinazolinones as prolyl hydroxylase inhibitors” (Janssen Pharmaceutica NV, priority 2009, dated 2015)

What was measured:
human PHD2 (PHD2181-417) = molecular target: T1, human PHD2 (PHD2181-417) (Homo sapiens, UniProt Q9GZT9); experiment: PHD enzymatic assay ([14C]-succinic acid production); type: biochemical; conditions: PHD2181-417, HIF-1α peptide 10 μM, average of results; read-out: Enzyme pIC50 (converted)
T1 construct: Smt (SUMO) tag (cleaved yes); made in house; host or cells: E. coli BL21 (pBAD vector)
T1 sequence (Q9GZT9 181-417): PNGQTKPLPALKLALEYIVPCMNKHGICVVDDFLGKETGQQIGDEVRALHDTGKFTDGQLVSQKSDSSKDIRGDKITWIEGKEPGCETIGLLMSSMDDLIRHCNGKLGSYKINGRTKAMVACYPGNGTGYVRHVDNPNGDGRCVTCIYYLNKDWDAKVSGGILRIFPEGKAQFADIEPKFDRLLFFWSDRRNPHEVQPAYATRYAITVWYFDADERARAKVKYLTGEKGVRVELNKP
Procedure: Protein production was achieved by expression in BL21 cells grown in Terrific Broth containing 100 μg/ml ampicillin. Cell cultures were inoculated at 37° C. and grown to an OD600 of 0.8. Cultures were induced with 0.1% arabinose and grown overnight at 20° C. with continuous shaking at 225 rpm. Cells were then harvested by centrifugation and stored at −80° C. Cell pellets were suspended in Buffer A (50 mM Tris-HCl pH 7.2, 100 mM NaCl, 100 mM L-arginine, 1 mM TCEP, 0.05% (w/v) NP-40, 50 mM imidazole) followed by the addition of lysozyme and benzonase. Cells were lysed by sonication and the lysate was cleared by centrifugation (15,000 rpm, 90 min, 4° C.). The protein was purified by nickel affinity chromatography using a HisTrap Crude FF column (GE Healthcare). Samples were eluted in Buffer A with a 50-200 mM imidazole gradient. […] The flow-through was then dialyzed into 50 mM MES pH 6.0, 1 mM TCEP, 5 mM NaCl for ion exchange chromatography on a HiTrap SP Cation Exchange column (GE Healthcare). […] Fractions were pooled for further purification by size exclusion chromatography over a Superdex 75 Size Exclusion Column (GE Healthcare). Final protein was concentrated to 4 mg/ml and dialyzed in 10 mM PIPES pH 7.0, 100 mM NaCl, 0.5 mM TCEP.
(10 μM, California Peptide Research Inc., Napa, Calif.), and [5-^14C]-2-oxoglutaric acid (50 mCi/mmol, Moravek Chemicals, Brea, Calif.) in reaction buffer (40 mM Tris-HCl, pH 7.5, 0.4 mg/ml catalase, 0.5 mM DTT, 1 mM ascorbate) for 10 minutes. The reaction was stopped by addition of 50 μl of 70 mM H3PO4 and 50 μl of 500 mM NaH2PO4, pH3.2. Detection of [^14C]-succinic acid was achieved by separating from [5-^14C]-2-oxoglutaric acid by incubating the reaction mixture with 100 μl of 0.16 M DNP prepared in 30% perchloric acid. Next, 50 μl of unlabeled 20 mM 2-oxoglutaric acid/20 mM succinic acid, serving as carrier for the radioactivity, was added to the mixture, and was allowed to proceed for 30 minutes at room temperature. The reaction was then incubated with 50 μl of 1 M 2-oxoglutaric acid for 30 additional minutes at room temperature to precipitate the excess DNP. The reaction was then centrifuged at 2800×g for 10 minutes at room temperature to separate [^14C]-succinic acid in the supernatant from the precipitated [^14C]-dinitrophenylhydrazone. Fractions of the supernatant (400 μl) were counted using a beta counter (Beckman Coulter, Fullerton, Calif.).

Hep-3B cells = experiment: Cellular assay: erythropoietin secretion in Hep-3B cells; type: cell-based, human; conditions: Homo sapiens, Hep3B, 100 μM compound, 24 hours, percent of EPO secretion relative to assay control compound 7-[(4-Chloro-phenyl)-(5-methyl-isoxazol-3-ylamino)-methyl]-quinolin-8-ol, read-out: Cellular % EPO Stimulation
Procedure: Hep-3B cells (ATCC, Manassas, Va.) were plated in 96-well plates at 20,000 cells per well in 100 μl of DMEM containing 10% fetal bovine serum, 1% non-essential amino acids, 50 IU/mL of penicillin and 50 μg/mL of streptomycin (all cell culture reagents from Invitrogen, Carlsbad, Calif.). Twenty-four hours after plating, compounds were added and incubated for an additional 24 hours. All compounds were tested under saturating conditions with final compound concentrations at 100 μM. Fifty microliters of the supernatant was then transferred to a human Hypoxia assay kit (Meso-Scale Discovery, Gaithersburg, Md.). Erythropoietin in the supernatant was detected according to the manufacturer's instructions as follows. EPO detection plates were blocked with 3% BSA in PBS overnight and 50 μl of the supernatant was incubated at room temperature in an orbital shaker for 2 h. Twenty-five microliters of 0.5 μg/ml anti-EPO detection antibody was added for 2 hours at room temperature in an orbital shaker. After 3 washes in PBS, 150 μl of 1× read buffer is added and the plate is then read on the MSD SECTOR instrument.

IC50 (human PHD2 (PHD2181-417)) | Structure (SMILES) | Emax at 100 µM (Hep-3B cells)
20 nM | Cc1ccc(Oc2cc3c(=O)[nH]c(-n4cc(C(=O)O)cn4)nc3cc2C)cc1C [Example 92, 1-[6-(3,4-dimethyl-phenoxy)-7-methyl-4-oxo-3,4-dihydro-quinazolin-2-yl]-1H-pyrazole-4-carboxylic acid] | 137%
158 nM | O=C(O)c1cnn(-c2nc3cc(F)c(C4CCCCC4)cc3c(=O)[nH]2)c1 [Example 110, 1-(6-Cyclohexyl-7-fluoro-4-oxo-3,4-dihydro-quinazolin-2-yl)-1H-pyrazole-4-carboxylic acid] | 47%
31.6 nM | O=C(O)c1cnn(-c2nc3cc(Cl)c(Oc4cccc5ccccc45)cc3c(=O)[nH]2)c1 [Example 53, 1-[7-Chloro-6-(naphthalen-1-yloxy)-4-oxo-3,4-dihydro-quinazolin-2-yl]-1H-pyrazole-4-carboxylic acid] | 45%
25.1 nM | COc1ccc2nc(-n3cc(C(=O)O)cn3)[nH]c(=O)c2c1 [Example 122, 1-(6-Methoxy-4-oxo-3,4-dihydro-quinazolin-2-yl)-1H-pyrazole-4-carboxylic acid] | 16%
15.8 nM | O=C(O)c1cnn(-c2nc3ccc(OC(F)(F)F)cc3c(=O)[nH]2)c1 [Example 15, 1-(4-Oxo-6-trifluoromethoxy-3,4-dihydro-quinazolin-2-yl)-1H-pyrazole-4-carboxylic acid] | 19%
20 nM | O=C(O)c1cnn(-c2nc3cc(F)c(Oc4cccc5ccccc45)cc3c(=O)[nH]2)c1 [Example 57, 1-[7-Fluoro-6-(naphthalen-1-yloxy)-4-oxo-3,4-dihydro-quinazolin-2-yl]-1H-pyrazole-4-carboxylic acid] | 135%
15.8 nM | O=C(O)c1cnn(-c2nc3ccc(-c4cccc5c4OCCO5)cc3c(=O)[nH]2)c1 [Example 204, 1-[6-(2,3-Dihydro-benzo[1,4]dioxin-5-yl)-4-oxo-3,4-dihydro-quinazolin-2-yl]-1H-pyrazole-4-carboxylic acid] | 111%
31.6 nM | O=C(O)c1cnn(-c2nc3cc4c(cc3c(=O)[nH]2)CCCC4)c1 [Example 143, 1-(4-Oxo-3,4,6,7,8,9-hexahydro-benzo[g]quinazolin-2-yl)-1H-pyrazole-4-carboxylic acid] | 75%

Second part, the compound before the results:

Structure (SMILES) | IC50 (human PHD2 (PHD2181-417)) | Emax at 100 µM (Hep-3B cells)
Cc1cccc(C)c1C(=O)Nc1ccc2nc(-n3cc(C(=O)O)cn3)[nH]c(=O)c2c1 [Example 166, 1-[6-(2,6-Dimethyl-benzoylamino)-4-oxo-3,4-dihydro-quinazolin-2-yl]-1H-pyrazole-4-carboxylic acid] | 31.6 nM | 11%
O=C(O)c1cnn(-c2nc3ccc(C4CC4)cc3c(=O)[nH]2)c1 [Example 109, 1-(6-Cyclopropyl-4-oxo-3,4-dihydro-quinazolin-2-yl)-1H-pyrazole-4-carboxylic acid] | 25.1 nM | 100%
O=C(O)c1cnn(-c2nc3cc(Cl)c(N4CCc5ccc(Br)cc5C4)cc3c(=O)[nH]2)c1 [Example 85, 1-[6-(7-Bromo-3,4-dihydro-1H-isoquinolin-2-yl)-7-chloro-4-oxo-3,4-dihydro-quinazolin-2-yl]-1H-pyrazole-4-carboxylic acid] | 25.1 nM | 49%
CC(C)c1ccc2c(=O)[nH]c(-n3cc(C(=O)O)cn3)nc2c1 [Example 146, 1-(7-Isopropyl-4-oxo-3,4-dihydro-quinazolin-2-yl)-1H-pyrazole-4-carboxylic acid] | 126 nM | 16%
O=C(O)c1cnn(-c2nc3ccc(Oc4cccc(F)c4)cc3c(=O)[nH]2)c1 [Example 34, 1-[6-(3-Fluoro-phenoxy)-4-oxo-3,4-dihydro-quinazolin-2-yl]-1H-pyrazole-4-carboxylic acid] | 25.1 nM | 73%
O=C(O)c1cnn(-c2nc3cc(Cl)c(Oc4ccc5ccccc5c4)cc3c(=O)[nH]2)c1 [Example 54, 1-[7-Chloro-6-(naphthalen-2-yloxy)-4-oxo-3,4-dihydro-quinazolin-2-yl]-1H-pyrazole-4-carboxylic acid] | 39.8 nM | 90%
O=C(O)c1cnn(-c2nc3ccc(-c4ccccc4Cl)cc3c(=O)[nH]2)c1 [Example 192, 1-[6-(2-Chloro-phenyl)-4-oxo-3,4-dihydro-quinazolin-2-yl]-1H-pyrazole-4-carboxylic acid] | 31.6 nM | 87%
O=C(O)c1cnn(-c2nc3ccc(NC(=O)c4ccccc4)cc3c(=O)[nH]2)c1 [Example 165, 1-(6-Benzoylamino-4-oxo-3,4-dihydro-quinazolin-2-yl)-1H-pyrazole-4-carboxylic acid] | 25.1 nM | 19%
O=C(O)c1cnn(-c2nc3c4c(ccc3c(=O)[nH]2)CCC4)c1 [Example 141, 1-(6-Oxo-2,3,6,7-tetrahydro-1H-7,9-diaza-cyclopenta[a]naphthalen-8-yl)-1H-pyrazole-4-carboxylic acid] | 501 nM | 25%
O=C(O)c1cnn(-c2nc3ccc(-c4cccc(-c5ccccc5)c4)cc3c(=O)[nH]2)c1 [Example 70, 1-(6-Biphenyl-3-yl-4-oxo-3,4-dihydro-quinazolin-2-yl)-1H-pyrazole-4-carboxylic acid] | 31.6 nM | 41%
NC(=O)c1cccc(CNc2ccc3nc(-n4cc(C(=O)O)cn4)[nH]c(=O)c3c2)c1 [Example 179, 1-[6-(3-Carbamoyl-benzylamino)-4-oxo-3,4-dihydro-quinazolin-2-yl]-1H-pyrazole-4-carboxylic acid] | 25.1 nM | 12%
O=C(O)c1cnn(-c2nc3ccc(NCc4cccc(Cl)c4)cc3c(=O)[nH]2)c1 [Example 182, 1-[6-(3-Chloro-benzylamino)-4-oxo-3,4-dihydro-quinazolin-2-yl]-1H-pyrazole-4-carboxylic acid] | 25.1 nM | 26%
O=C(O)c1cnn(-c2nc3cc(C(F)(F)F)ccc3c(=O)[nH]2)c1 [Example 2, 1-(7-Trifluoromethyl-4-oxo-3,4-dihydro-quinazolin-2-yl)-1H-pyrazole-4-carboxylic acid] | 158 nM | 21%
O=C(O)c1cnn(-c2nc3cc(-c4cccc(Cl)c4)ccc3c(=O)[nH]2)c1 [Example 186, 1-[7-(3-Chloro-phenyl)-4-oxo-3,4-dihydro-quinazolin-2-yl]-1H-pyrazole-4-carboxylic acid] | 50.1 nM | 26%
O=C(O)c1cnn(-c2nc3cc(F)ccc3c(=O)[nH]2)c1 [Example 133, 1-(7-Fluoro-4-oxo-3,4-dihydro-quinazolin-2-yl)-1H-pyrazole-4-carboxylic acid] | 39.8 nM | 10%
O=C(O)c1cnn(-c2nc3cc(Cl)ccc3c(=O)[nH]2)c1 [Example 1, 1-(7-Chloro-4-oxo-3,4-dihydro-quinazolin-2-yl)-1H-pyrazole-4-carboxylic acid] | 50.1 nM | 37%
COc1ccc(S(=O)(=O)c2cc3c(=O)[nH]c(-n4cc(C(=O)O)cn4)nc3cc2Cl)cc1OC [Example 71, 1-[7-Chloro-6-(3,4-dimethoxy-benzenesulfonyl)-4-oxo-3,4-dihydro-quinazolin-2-yl]-1H-pyrazole-4-carboxylic acid] | 15.8 nM | 16%
